Assay results as given in patent US11034672B1, “Tyrosine kinase inhibitor compositions, methods of making and methods of use” (Black Diamond Therapeutics, Inc., priority 2018, dated 2021).

Assays:
Assay type in all cases: cell-based
HER2 YVMA [1] = target: T1, HER2 YVMA (Homo sapiens, UniProt P04626, INS775YVMA); assay: Activity for inhibiting HER2 (Table B), HER2 YVMA; conditions: read-out: HER2 YVMA, potency code (IC50)
T1 construct: expressed in transfected cells; host or cells: BaF3 (murine pro-B)
T1 sequence (P04626 with tags, fused parts or gaps INS775YVMA): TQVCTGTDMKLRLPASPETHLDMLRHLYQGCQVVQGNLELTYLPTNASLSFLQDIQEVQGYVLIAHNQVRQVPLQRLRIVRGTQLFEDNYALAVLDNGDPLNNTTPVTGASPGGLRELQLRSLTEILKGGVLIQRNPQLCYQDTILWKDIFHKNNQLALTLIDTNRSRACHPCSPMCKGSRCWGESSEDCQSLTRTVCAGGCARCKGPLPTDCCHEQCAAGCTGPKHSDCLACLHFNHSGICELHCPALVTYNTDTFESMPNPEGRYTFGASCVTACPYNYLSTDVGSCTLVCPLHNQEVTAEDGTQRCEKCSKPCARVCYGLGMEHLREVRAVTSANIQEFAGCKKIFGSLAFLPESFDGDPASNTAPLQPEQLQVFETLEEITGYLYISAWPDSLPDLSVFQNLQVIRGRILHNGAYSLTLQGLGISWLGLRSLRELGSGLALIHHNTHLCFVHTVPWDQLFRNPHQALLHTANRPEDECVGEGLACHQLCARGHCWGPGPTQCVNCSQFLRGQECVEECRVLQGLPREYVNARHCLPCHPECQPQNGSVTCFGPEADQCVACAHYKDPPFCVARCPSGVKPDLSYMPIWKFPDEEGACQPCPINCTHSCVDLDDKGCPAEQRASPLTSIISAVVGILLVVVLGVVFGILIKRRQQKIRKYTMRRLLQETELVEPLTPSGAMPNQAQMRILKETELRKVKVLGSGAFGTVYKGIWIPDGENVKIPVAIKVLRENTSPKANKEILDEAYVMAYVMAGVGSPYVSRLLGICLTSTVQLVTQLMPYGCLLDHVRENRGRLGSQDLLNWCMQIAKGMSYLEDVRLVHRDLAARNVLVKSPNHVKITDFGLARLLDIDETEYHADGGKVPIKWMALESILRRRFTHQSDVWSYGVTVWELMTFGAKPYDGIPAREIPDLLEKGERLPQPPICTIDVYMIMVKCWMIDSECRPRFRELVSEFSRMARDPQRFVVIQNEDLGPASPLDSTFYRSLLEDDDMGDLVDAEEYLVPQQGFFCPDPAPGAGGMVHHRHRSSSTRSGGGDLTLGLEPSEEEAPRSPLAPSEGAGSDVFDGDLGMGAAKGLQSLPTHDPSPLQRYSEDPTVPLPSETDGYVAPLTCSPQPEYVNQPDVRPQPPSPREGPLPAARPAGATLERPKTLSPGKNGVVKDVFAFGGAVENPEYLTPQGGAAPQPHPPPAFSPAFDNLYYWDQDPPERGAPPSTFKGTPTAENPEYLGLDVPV
Experimental: (§1) EC50 values were determined with the same application.

HER2 S310F [2] = target: T2, HER2 S310F (Homo sapiens, UniProt P04626, S310F); assay: BaF3 cell proliferation assay, HER2 S310F (Table B); conditions: potency code, 3 days, CellTiterGlo, read-out: HER2 S310F (Activity for Inhibiting HER2)
T2 construct: expressed in transfected cells; host or cells: BaF3 (murine pro-B)
T2 sequence (P04626 23-1255 S310F): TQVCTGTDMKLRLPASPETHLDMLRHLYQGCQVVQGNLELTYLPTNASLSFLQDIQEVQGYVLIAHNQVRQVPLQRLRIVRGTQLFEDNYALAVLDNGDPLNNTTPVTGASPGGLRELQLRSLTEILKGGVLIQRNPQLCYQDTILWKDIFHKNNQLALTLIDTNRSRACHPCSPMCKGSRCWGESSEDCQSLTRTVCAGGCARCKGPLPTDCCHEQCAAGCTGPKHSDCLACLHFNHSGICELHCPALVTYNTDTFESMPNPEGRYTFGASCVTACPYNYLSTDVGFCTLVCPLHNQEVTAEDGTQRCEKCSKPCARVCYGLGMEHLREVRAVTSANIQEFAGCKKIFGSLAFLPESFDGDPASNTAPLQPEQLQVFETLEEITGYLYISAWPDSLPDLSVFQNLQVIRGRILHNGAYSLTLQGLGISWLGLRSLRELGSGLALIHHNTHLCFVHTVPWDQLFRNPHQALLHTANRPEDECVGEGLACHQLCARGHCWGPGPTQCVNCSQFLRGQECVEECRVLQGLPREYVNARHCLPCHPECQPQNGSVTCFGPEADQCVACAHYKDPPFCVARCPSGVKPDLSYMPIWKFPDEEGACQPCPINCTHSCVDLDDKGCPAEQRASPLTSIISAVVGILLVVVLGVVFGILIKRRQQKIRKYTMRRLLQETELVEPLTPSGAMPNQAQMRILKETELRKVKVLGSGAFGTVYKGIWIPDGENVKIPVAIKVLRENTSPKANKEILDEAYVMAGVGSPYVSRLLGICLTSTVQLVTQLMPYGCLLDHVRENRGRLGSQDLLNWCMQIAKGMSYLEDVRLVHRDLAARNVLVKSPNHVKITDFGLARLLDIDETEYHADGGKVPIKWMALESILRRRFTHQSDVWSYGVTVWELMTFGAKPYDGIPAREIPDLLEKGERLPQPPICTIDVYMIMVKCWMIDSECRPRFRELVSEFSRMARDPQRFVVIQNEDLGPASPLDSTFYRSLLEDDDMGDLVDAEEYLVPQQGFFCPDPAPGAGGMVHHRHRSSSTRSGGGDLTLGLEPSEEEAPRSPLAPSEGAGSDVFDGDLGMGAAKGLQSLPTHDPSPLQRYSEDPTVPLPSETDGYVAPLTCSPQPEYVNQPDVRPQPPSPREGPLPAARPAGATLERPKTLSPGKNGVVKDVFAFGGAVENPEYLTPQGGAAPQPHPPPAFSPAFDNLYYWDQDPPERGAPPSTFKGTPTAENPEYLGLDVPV

EGFR V3 [3] = target: T3, EGFR V3 (Homo sapiens, UniProt P00533, DELINS30-297G); assay: Activity for inhibiting EGFR (Table A), EGFR V3 (EGFR-Viii); conditions: read-out: EGFR V3, potency code (IC50)
T3 construct: expressed in transfected cells; host or cells: BaF3 (murine pro-B), retroviral pMXs-IRES-Blasticidin
T3 sequence (P00533 with tags, fused parts or gaps DELINS30-297G): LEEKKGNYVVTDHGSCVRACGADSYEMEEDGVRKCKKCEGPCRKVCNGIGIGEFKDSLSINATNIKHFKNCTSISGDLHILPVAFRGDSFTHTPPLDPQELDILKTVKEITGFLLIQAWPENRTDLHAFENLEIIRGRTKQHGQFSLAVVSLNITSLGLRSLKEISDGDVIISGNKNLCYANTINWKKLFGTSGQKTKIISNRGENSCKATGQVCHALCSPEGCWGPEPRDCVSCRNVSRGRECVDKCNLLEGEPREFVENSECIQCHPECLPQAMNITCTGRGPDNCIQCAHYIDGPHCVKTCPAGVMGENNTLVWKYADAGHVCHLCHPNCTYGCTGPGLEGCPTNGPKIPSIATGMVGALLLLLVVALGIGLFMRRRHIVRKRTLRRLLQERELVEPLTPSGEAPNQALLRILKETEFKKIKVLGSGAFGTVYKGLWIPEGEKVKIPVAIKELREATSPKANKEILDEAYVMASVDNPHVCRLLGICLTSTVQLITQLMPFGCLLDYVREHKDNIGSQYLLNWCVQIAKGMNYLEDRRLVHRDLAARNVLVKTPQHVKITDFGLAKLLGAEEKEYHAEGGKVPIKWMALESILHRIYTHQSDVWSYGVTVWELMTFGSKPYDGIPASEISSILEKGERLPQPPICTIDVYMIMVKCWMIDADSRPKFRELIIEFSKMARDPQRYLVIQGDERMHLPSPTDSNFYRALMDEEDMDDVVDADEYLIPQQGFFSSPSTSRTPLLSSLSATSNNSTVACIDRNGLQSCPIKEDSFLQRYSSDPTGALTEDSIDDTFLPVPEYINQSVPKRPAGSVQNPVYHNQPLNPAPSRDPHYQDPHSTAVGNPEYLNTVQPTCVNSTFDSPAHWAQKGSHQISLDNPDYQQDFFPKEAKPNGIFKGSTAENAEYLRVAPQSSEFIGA

EGFR WT [4] = target: T4, EGFR WT (Homo sapiens, UniProt P00533); assay: Activity for inhibiting EGFR (Table A), EGFR WT; conditions: read-out: EGFR WT, potency code (IC50)
T4 sequence (P00533 25-1210 N540K): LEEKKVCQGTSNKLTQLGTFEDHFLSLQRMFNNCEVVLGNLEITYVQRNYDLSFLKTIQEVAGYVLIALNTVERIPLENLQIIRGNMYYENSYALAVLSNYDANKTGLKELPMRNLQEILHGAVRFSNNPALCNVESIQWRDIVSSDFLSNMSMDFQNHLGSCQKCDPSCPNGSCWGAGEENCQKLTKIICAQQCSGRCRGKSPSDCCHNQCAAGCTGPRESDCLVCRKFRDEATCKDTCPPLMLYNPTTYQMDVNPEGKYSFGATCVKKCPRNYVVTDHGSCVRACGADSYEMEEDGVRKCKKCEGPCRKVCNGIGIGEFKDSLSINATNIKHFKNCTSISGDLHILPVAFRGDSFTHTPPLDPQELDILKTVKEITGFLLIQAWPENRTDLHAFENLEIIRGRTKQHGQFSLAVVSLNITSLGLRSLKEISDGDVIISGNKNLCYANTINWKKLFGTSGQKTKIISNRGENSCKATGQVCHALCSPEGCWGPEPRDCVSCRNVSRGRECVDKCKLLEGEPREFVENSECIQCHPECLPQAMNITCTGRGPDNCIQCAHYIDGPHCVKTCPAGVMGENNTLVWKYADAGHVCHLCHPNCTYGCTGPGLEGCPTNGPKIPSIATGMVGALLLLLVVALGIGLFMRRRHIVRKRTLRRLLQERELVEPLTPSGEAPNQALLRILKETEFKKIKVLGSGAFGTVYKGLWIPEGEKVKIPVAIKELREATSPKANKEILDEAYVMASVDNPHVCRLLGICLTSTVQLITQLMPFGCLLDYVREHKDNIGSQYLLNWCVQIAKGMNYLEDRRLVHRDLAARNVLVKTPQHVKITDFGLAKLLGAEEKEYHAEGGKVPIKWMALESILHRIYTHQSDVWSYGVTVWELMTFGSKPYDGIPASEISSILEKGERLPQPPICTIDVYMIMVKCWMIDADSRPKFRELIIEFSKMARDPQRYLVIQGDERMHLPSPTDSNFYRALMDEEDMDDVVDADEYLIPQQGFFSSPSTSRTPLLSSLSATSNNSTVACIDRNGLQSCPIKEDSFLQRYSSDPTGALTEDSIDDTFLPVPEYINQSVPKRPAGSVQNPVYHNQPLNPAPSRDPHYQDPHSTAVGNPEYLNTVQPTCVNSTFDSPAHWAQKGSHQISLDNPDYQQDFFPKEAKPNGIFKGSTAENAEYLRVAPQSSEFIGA

HER2 YVMA [5] = target: T1, HER2 YVMA; assay: BaF3 cell proliferation assay, HER2 YVMA (Table B); conditions: potency code, 3 days, CellTiterGlo, read-out: HER2 YVMA (Activity for Inhibiting HER2)
EGFR V3 [6] = target: T3, EGFR V3; assay: BaF3 cell proliferation assay, EGFR V3 (Table A); conditions: potency code, 3 days, CellTiterGlo, read-out: EGFR V3 (Activity for Inhibiting EGFR)
Experimental: (§2) Retroviral Production: EGFR mutants were subcloned into pMXs-IRES-Blasticidin (RTV-016, Cell Biolabs, San Diego, Calif.). Retroviral expression vector retrovirus was produced by transient transfection of HEK 293T cells with the retroviral EGFR mutant expression vector pMXs-IRES-Blasticidin (RTV-016, Cell Biolabs), pCMV-Gag-Pol vector and pCMV-VSV-G-Envelope vector. Briefly, HEK 293T/17 cells were plated in 100 mm collagen coated plate (354450, Corning Life Sciences, Tewksbury, Mass.) (4×10^5 per plate) and incubated overnight. The next day, retroviral plasmids (3 μg of EGFR mutant, 1.0 μg of pCMV-Gag-Pol and 0.5 μg pCMV-VSV-G) were mixed in 500 μl of Optimem (31985, Life Technologies). The mixture was incubated at room temperature for 5 min and then added to Optimem containing transfection reagent Lipofectamine (11668, Invitrogen) and incubated for 20 minutes. Mixture was then added dropwise to HEK 293T cells. The next day the medium was replaced with fresh culture medium and retrovirus was harvested @ 24 and 48 hrs.
(§3) Generation of EGFR mutant stable cell lines: BaF3 cells (1.5E5 cells) were infected with 1 ml of viral supernatant supplemented with 8 μg/ml polybrene by centrifuging for 30 min at 1000 rpm. Cells were placed in a 37° C. incubator overnight. Cells were then spun for 5 minutes to pellet the cells. Supernatant was removed and cells re-infected a fresh 1 ml of viral supernatant supplemented with 8 μg/ml polybrene by centrifuging for 30 min at 1000 rpm. Cells were placed in 37° C. incubator overnight. […] After 48 hours cells were selected for retroviral infection in 10 μg/ml Blasticidin for one week. Blasticidin resistant populations were washed twice in phosphate buffered saline before plating in media lacking IL-3 to select for IL-3 independent growth.
as §1

EGFR WT [7] = target: T4, EGFR WT; assay: BaF3 cell proliferation assay, EGFR WT (Table A); conditions: potency code, 3 days, CellTiterGlo, read-out: EGFR WT (Activity for Inhibiting EGFR)
Experimental: as §2, §3, §1

HER2 S310F [8] = target: T2, HER2 S310F; assay: Activity for inhibiting HER2 (Table B), HER2 S310F; conditions: read-out: HER2 S310F, potency code (IC50)
Experimental: as §1

Structure (SMILES) | IC50 (HER2 YVMA [1]) | IC50 (HER2 S310F [2]) | IC50 (EGFR V3 [3]) | IC50 (EGFR WT [4]) | IC50 (HER2 YVMA [5]) | IC50 (EGFR V3 [6]) | IC50 (EGFR WT [7]) | IC50 (HER2 S310F [8])
C=CC(=O)Nc1cc2c(Nc3ccc(OCc4cnccn4)c(Cl)c3)ncnc2cc1OCCN1CC2CCC(C1)O2 [compound 175] | 100 to 200 nM | 20 to 30 nM | 30 to 50 nM | > 1000 nM | 100 to 200 nM | 30 to 50 nM | > 1000 nM | 20 to 30 nM
C=CC(=O)Nc1cc2c(Nc3ccc(OCc4ccncn4)c(Cl)c3)ncnc2cc1OCCCN1CCOCC1 [compound 163] | 100 to 200 nM | 30 to 50 nM | 50 to 100 nM | > 1000 nM | 100 to 200 nM | 50 to 100 nM | > 1000 nM | 30 to 50 nM
C=CC(=O)Nc1cc2c(Nc3ccc(Oc4ccc(C)nc4)c(C)c3)ncnc2cc1OCCN1CCOCC1 [compound 73] | 300 to 500 nM | 30 to 50 nM | 50 to 100 nM | 500 to 1000 nM | 300 to 500 nM | 50 to 100 nM | 500 to 1000 nM | 30 to 50 nM
C=CC(=O)Nc1cc2c(Nc3ccc(OCc4cnccn4)c(Cl)c3)ncnc2cc1OCCCN1CCOCC1 [compound 169] | 30 to 50 nM | 10 to 20 nM | 30 to 50 nM | > 1000 nM | 30 to 50 nM | 30 to 50 nM | > 1000 nM | 10 to 20 nM
CC#CC(=O)Nc1cc2c(Nc3cc(Cl)c(OCc4cccc(F)c4)cc3F)ncnc2cc1OCCN1CC2CCC(C1)O2 [compound 148, N-(7-(2-(8-oxa-3-azabicyclo[3.2.1]octan-3-yl)ethoxy)-4-((5-chloro-2-fluoro-4-((3-fluorobenzyl)oxy)phenyl)amino)quinazolin-6-yl)but-2-ynamide] | 50 to 100 nM | 20 to 30 nM | 100 to 200 nM | 200 to 300 nM | 50 to 100 nM | 100 to 200 nM | 200 to 300 nM | 20 to 30 nM
C=CC(=O)Nc1cc2c(Nc3ccc(OCc4cccc(F)c4)c(Cl)c3)ncnc2cc1OCCCN1C[C@H]2C[C@@H]1CO2 [compound 160] | 300 to 500 nM | 100 to 200 nM | 100 to 200 nM | 300 to 500 nM | 300 to 500 nM | 100 to 200 nM | 300 to 500 nM | 100 to 200 nM
C=CC(=O)Nc1cc2c(Nc3ccc(Oc4ccc(Cl)c(F)c4)cc3)ncnc2cc1OCCN1CCOCC1 [compound 127] | > 1000 nM | 300 to 500 nM | 50 to 100 nM | 500 to 1000 nM | > 1000 nM | 50 to 100 nM | 500 to 1000 nM | 300 to 500 nM
C=CC(=O)Nc1cc2c(Nc3ccc(OCc4cccc(C)n4)c(Cl)c3)ncnc2cc1OCCN1CC(OC)C1 [compound 135] | 300 to 500 nM | 100 to 200 nM | 50 to 100 nM | 300 to 500 nM | 300 to 500 nM | 50 to 100 nM | 300 to 500 nM | 100 to 200 nM
CC#CC(=O)Nc1cc2c(Nc3cc(Cl)c(OCc4cccc(F)c4)cc3F)ncnc2cc1OCCCN1CC(OC)C1 [compound 136, N-(4-((5-chloro-2-fluoro-4-((3-fluorobenzyl)oxy)phenyl)amino)-7-(3-(3-methoxyazetidin-1-yl)propoxy)quinazolin-6-yl)but-2-ynamide] | 100 to 200 nM | 30 to 50 nM | 100 to 200 nM | 100 to 200 nM | 100 to 200 nM | 100 to 200 nM | 100 to 200 nM | 30 to 50 nM
C=CC(=O)Nc1cc2c(Nc3ccc(OCc4cnccn4)c(Cl)c3)ncnc2cc1OCCN1CC(OC)C1 [compound 178] | 100 to 200 nM | 30 to 50 nM | 30 to 50 nM | > 1000 nM | 100 to 200 nM | 30 to 50 nM | > 1000 nM | 30 to 50 nM
